# Source: US10070645B2, “N-cycloalkyl-N-{[2-(1-substitutedcycloalkyl)phenyl]methylene}-(thio)carboxamide derivatives” (BAYER CROPSCIENCE AKTIENGESELLSCHAFT, priority 2013, dated 2018)
# Where “and” joins values, the source holds several entries; their conditions need not be identical. Equal entries are not always repeated.
# Key:
# [1] = test system: Phakopsora pachyrhizi; assay: In vivo preventive test on Phakopsora pachyrhizi (soybean rust); conditions: for protection: dose of 10 ppm of active ingredient
# Procedure: In Vivo Preventive Test on Phakopsora pachyrhizi (Soybean Rust)
# Solvent: 24.5 parts by weight of acetone • 24.5 parts by weight of N,N-dimethylacetamide
# Emulsifier: 1 part by weight of alkylaryl polyglycol ether
# To produce a suitable preparation of active compound, 1 part by weight of active compound is mixed with the stated amounts of solvent and emulsifier, and the concentrate is diluted with water to the desired concentration.
# To test for preventive activity, young plants are sprayed with the preparation of active compound at the stated rate of application. After the spray coating has dried on, the plants are inoculated with an aqueous spore suspension of the causal agent of soybean rust (Phakopsora pachyrhizi) and stay for 24 h without light in an incubation cabinet at approximately 24° C. and a relative atmospheric humidity of 95%.
# The plants remain in the incubation cabinet at approximately 24° C. and a relative atmospheric humidity of approximately 80% and a day/night interval of 12 h.
# The test is evaluated 7 days after the inoculation. 0% means an efficacy which corresponds to that of the untreated control, while an efficacy of 100% means that no disease is observed.
# [2] = test system: Uromyces appendiculatus; assay: In vivo preventive test on Uromyces appendiculatus (bean rust); conditions: for protection: dose of 100 and 10 ppm of active ingredient
# Procedure: In Vivo Preventive Test on Uromyces appendiculatus (Bean Rust)
# Solvent: 5% by volume of Dimethyl sulfoxide • 10% by volume of Acetone
# Emulsifier: 1 μL of Tween® 80 per mg of active ingredient
# The active ingredients are made soluble and homogenized in a mixture of Dimethyl sulfoxide/Acetone/Tween® 80 and then diluted in water to the desired concentration.
# The young plants of bean are treated by spraying the active ingredient prepared as described above. Control plants are treated only with an aqueous solution of Acetone/Dimethyl sulfoxide/Tween® 80.
# After 24 hours, the plants are contaminated by spraying the leaves with an aqueous suspension of Uromyces appendiculatus spores. The contaminated bean plants are incubated for 24 hours at 20° C. and at 100% relative humidity and then for 10 days at 20° C. and at 70-80% relative humidity.
# The test is evaluated 11 days after the inoculation. 0% means an efficacy which corresponds to that of the control plants while an efficacy of 100% means that no disease is observed.
# [3] = log P by HPLC on a reversed-phase column (C 18), EEC Directive 79/831 Annex V.A8; type: physicochemical; conditions: for chromatographic logP: reversed-phase HPLC column (C 18)
# Procedure, shortened: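 Reversed-phase C18 HPLC at 40° C, 0.1% aqueous formic acid/acetonitrile gradient from 10% to 90% acetonitrile. log P derived from retention times by linear interpolation between unbranched alkan-2-ones (3–16 carbons) of known log P.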
# [4] = HPLC, reversed-phase column (C 18), 40° C., 0.1% aqueous formic acid and acetonitrile, linear gradient 10% to 90% acetonitrile
# [5] = Table 3 (amines of formula II), HPLC C 18, 40° C., 0.1% aqueous formic acid and acetonitrile
# [6] = Table 4 (aldehydes of formula IV), HPLC C 18, 40° C., 0.1% aqueous formic acid and acetonitrile
smiles,measurement,setting,value
"Cc1ccc(C(F)(F)F)c(CN(C(=O)c2c(C(F)F)nn(C)c2F)C2CC2)c1 [12 from WO-2010/130767, N-cyclopropyl-3-(difluoromethyl)-5-fluoro-1-methyl-N-[5-methyl-2-(trifluoromethyl)benzyl]-1H-pyrazole-4-carboxamide, reference compound]",Efficacy,"[1]; Table C1, dose 10 ppm",0%
same,protection,[1],no protection
"Cn1nc(C(F)F)c(C(=O)N(Cc2cc(Cl)ccc2C2CC2)C2CC2)c1F [41 from WO-2010/130767, N-(5-chloro-2-cyclopropylbenzyl)-N-cyclopropyl-3-(difluoromethyl)-5-fluoro-1-methyl-1H-pyrazole-4-carboxamide, reference compound]",Efficacy,"[1]; Table C2, dose 10 ppm",0%
same,protection,[1],no protection
"Cn1nc(C(F)F)c(C(=O)N(Cc2c(C3CC3)ccc(F)c2F)C2CC2)c1F [54 from WO-2010/130767, N-cyclopropyl-N-(6-cyclopropyl-2,3-difluorobenzyl)-3-(difluoromethyl)-5-fluoro-1-methyl-1H-pyrazole-4-carboxamide, reference compound]",Efficacy,"[2]; Table B1, dose 10 ppm",29%
same,Efficacy,"[2]; Table B1, dose 100 ppm",100%
same,protection,[2],total to poor (less than 30%) protection
"Cn1nc(C(F)F)c(C(=O)N(Cc2cc(F)ccc2C2CC2)C2CC2)c1F [123 from WO-2010/130767, N-cyclopropyl-N-(2-cyclopropyl-5-fluorobenzyl)-3-(difluoromethyl)-5-fluoro-1-methyl-1H-pyrazole-4-carboxamide, reference compound]",Efficacy,"[1]; Table C3, dose 10 ppm",0%
same,protection,[1],no protection
Cn1nc(C(F)F)c(C(=O)N(Cc2cc(F)ccc2C2(C)CC2)C2CC2)c1F [I.066],Efficacy,"[2]; Table B1, dose 10 ppm",100%
same,Efficacy,"[2]; Table B1, dose 100 ppm",100%
same,protection,[2],total protection
same,Efficacy,"[1]; Table C3, dose 10 ppm",89%
same,logP,[3]; [4],3.89
Cc1ccc(C2(C)CC2)c(CN(C(=O)c2c(C(F)F)nn(C)c2F)C2CC2)c1 [I.071],Efficacy,"[1]; Table C1, dose 10 ppm",99%
same,protection,[1],at least 90%
same,logP,[3]; [4],4.19
CCC1(c2cc(C)c(F)cc2CN(C(=O)c2c(C(F)F)nn(C)c2F)C2CC2)CC1 [I.106],Efficacy,"[1]; Table C3, dose 10 ppm",100% and 98%
same,logP,[3]; [4],4.67
CCC1(c2ccc(Cl)cc2CN(C(=O)c2c(C(F)F)nn(C)c2F)C2CC2)CC1 [I.110],Efficacy,"[1]; Table C2, dose 10 ppm",98%
same,protection,[1],at least 90%
same,logP,[3]; [4],4.59
"Cn1nc(C(F)F)c(C(=O)N(Cc2cc(F)ccc2C2(C(F)F)CC2)C2CC2)c1F [I.151, N-cyclopropyl-3-(difluoromethyl)-N-{2-[1-(difluoromethyl)-cyclopropyl]-5-fluorobenzyl}-5-fluoro-1-methyl-1H-pyrazole-4-carboxamide]",Efficacy,"[2]; Table B1, dose 10 ppm",100%
same,Efficacy,"[2]; Table B1, dose 100 ppm",100%
same,protection,[2],total protection
same,chromatographic logP,[3]; preparation examples,3.39
"FC(F)C1(c2ccccc2CNC2CC2)CC1 [II.36, N-{2-[1-(difluoromethyl)cyclopropyl]benzyl}cyclopropanamine]",chromatographic logP,[3]; [5],0.92
"FC(F)C1(c2ccc(Br)cc2CNC2CC2)CC1 [II.37, N-{5-bromo-2-[1-(difluoromethyl)cyclopropyl]benzyl}cyclopropanamine]",chromatographic logP,[3]; [5],1.3
"FC(F)C1(c2ccc(Cl)cc2CNC2CC2)CC1 [II.38, N-{5-chloro-2-[1-(difluoromethyl)cyclopropyl]benzyl}cyclopropanamine]",chromatographic logP,[3]; [5],1.16
"Fc1ccc(C2(C(F)F)CC2)c(CNC2CC2)c1 [II.39, N-{2-[1-(difluoromethyl)cyclopropyl]-5-fluorobenzyl}cyclopropanamine]",logP,[3]; [5],1.08
same,chromatographic logP,[3]; preparation examples,1.08
"Cc1ccc(C2(C(F)F)CC2)c(CNC2CC2)c1 [II.40, N-{2-[1-(difluoromethyl)cyclopropyl]-5-methylbenzyl}cyclopropanamine]",chromatographic logP,[3]; [5],1.09
"FC(F)C1(c2cccc(Br)c2CNC2CC2)CC1 [II.41, N-{2-bromo-6-[1-(difluoromethyl)cyclopropyl]benzyl}cyclopropanamine]",chromatographic logP,[3]; [5],1.1
"Cc1ccc(C2(CC(C)C)CC2)c(CNC2CC2)c1 [II.43, N-[2-(1-isobutylcyclopropyl)-5-methylbenzyl]cyclopropanamine]",chromatographic logP,[3]; [5],2.15
"FC(F)(F)C1(c2ccc(Cl)cc2CNC2CC2)CC1 [II.44, N-{5-chloro-2-[1-(trifluoromethyl)cyclopropyl]benzyl}cyclopropanamine]",chromatographic logP,[3]; [5],1.47
"FC(F)(F)C1(c2ccccc2CNC2CC2)CC1 [II.45, N-{2-[1-(trifluoromethyl)cyclopropyl]benzyl}cyclopropanamine]",chromatographic logP,[3]; [5],1.25
"Fc1ccc(C2(C(F)(F)F)CC2)c(CNC2CC2)c1 [II.46, N-{5-fluoro-2-[1-(trifluoromethyl)cyclopropyl]benzyl}cyclopropanamine]",chromatographic logP,[3]; [5],1.32
"CC1(c2ccccc2C=O)CC1 [IV.01, 2-(1-methylcyclopropyl)benzaldehyde]",chromatographic logP,[3]; [6],3.02
"CC1(c2cc(F)ccc2C=O)CC1 [IV.03, 4-fluoro-2-(1-methylcyclopropyl)benzaldehyde]",chromatographic logP,[3]; [6],3.15
"Cc1ccc(C=O)c(C2(C)CC2)c1 [IV.04, 4-methyl-2-(1-methylcyclopropyl)benzaldehyde]",chromatographic logP,[3]; [6],3.44
"COc1ccc(C=O)c(C2(C)CC2)c1 [IV.05, 4-methoxy-2-(1-methylcyclopropyl)benzaldehyde]",chromatographic logP,[3]; [6],2.92
"CC1(c2cc(F)c(F)cc2C=O)CC1 [IV.06, 4,5-difluoro-2-(1-methylcyclopropyl)benzaldehyde]",chromatographic logP,[3]; [6],3.44
"Cc1cc(C=O)c(C2(C)CC2)cc1C [IV.07, 4,5-dimethyl-2-(1-methylcyclopropyl)benzaldehyde]",chromatographic logP,[3]; [6],3.85
"COc1cc(C=O)c(C2(C)CC2)cc1OC [IV.08, 4,5-dimethoxy-2-(1-methylcyclopropyl)benzaldehyde]",chromatographic logP,[3]; [6],2.56
"CC1(c2ccc(Cl)cc2C=O)CC1 [IV.10, 5-chloro-2-(1-methylcyclopropyl)benzaldehyde]",chromatographic logP,[3]; [6],3.76
"CC1(c2ccc(F)cc2C=O)CC1 [IV.11, 5-fluoro-2-(1-methylcyclopropyl)benzaldehyde]",chromatographic logP,[3]; [6],3.22
"Cc1ccc(C2(C)CC2)c(C=O)c1 [IV.12, 5-methyl-2-(1-methylcyclopropyl)benzaldehyde]",chromatographic logP,[3]; [6],3.55
"N#CC1(c2ccc(Cl)cc2C=O)CC1 [IV.15, 1-(4-chloro-2-formylphenyl)cyclopropanecarbonitrile]",chromatographic logP,[3]; [6],2.35
"CCC1(c2cc(C(F)(F)F)ccc2C=O)CC1 [IV.17, 2-(1-ethylcyclopropyl)-4-(trifluoromethyl)benzaldehyde]",chromatographic logP,[3]; [6],4.29
"CCC1(c2ccc(C)cc2C=O)CC1 [IV.18, 2-(1-ethylcyclopropyl)-5-methylbenzaldehyde]",chromatographic logP,[3]; [6],4.29
"CCCC1(c2cc(Cl)ccc2C=O)CC1 [IV.19, 4-chloro-2-(1-propylcyclopropyl)benzaldehyde]",chromatographic logP,[3]; [6],4.69
"O=Cc1cc(Cl)ccc1C1(C(F)F)CC1 [IV.20, 5-chloro-2-[1-(difluoromethyl)cyclopropyl]benzaldehyde]",chromatographic logP,[3]; [6],3.04
"Cc1ccc(C2(C(F)F)CC2)c(C=O)c1 [IV.21, 2-[1-(difluoromethyl)cyclopropyl]-5-methylbenzaldehyde]",chromatographic logP,[3]; [6],3.01
"O=Cc1cc(Cl)ccc1C1(C(=O)O)CC1 [IV.24, 1-(4-chloro-2-formylphenyl)cyclopropanecarboxylic acid]",chromatographic logP,[3]; [6],1.91
"COC(=O)C1(c2ccc(Cl)cc2C=O)CC1 [IV.25, methyl 1-(4-chloro-2-formylphenyl)cyclopropanecarboxylate]",chromatographic logP,[3]; [6],2.68
"CC1(c2c(Cl)cccc2CBr)CC1 [V.01, 1-(bromomethyl)-3-chloro-2-(1-methylcyclopropyl)benzene]",chromatographic logP,"[3]; Table 5 (formula V), HPLC C 18, 40° C., 0.1% aqueous formic acid and acetonitrile",4.86
